The target in data set [1] is T1, hSARM1 (Homo sapiens, UniProt Q6SZW1).
T1 construct: hSARM1w.t; (26ERL . . . GPT724) that was not mutated in E642, was also expressed and isolated; 6xHis (N); TEV cleavage site (N); made in house; host or cells: HEK293F suspension cells
T1 sequence (Q6SZW1 with tags, fused parts or gaps): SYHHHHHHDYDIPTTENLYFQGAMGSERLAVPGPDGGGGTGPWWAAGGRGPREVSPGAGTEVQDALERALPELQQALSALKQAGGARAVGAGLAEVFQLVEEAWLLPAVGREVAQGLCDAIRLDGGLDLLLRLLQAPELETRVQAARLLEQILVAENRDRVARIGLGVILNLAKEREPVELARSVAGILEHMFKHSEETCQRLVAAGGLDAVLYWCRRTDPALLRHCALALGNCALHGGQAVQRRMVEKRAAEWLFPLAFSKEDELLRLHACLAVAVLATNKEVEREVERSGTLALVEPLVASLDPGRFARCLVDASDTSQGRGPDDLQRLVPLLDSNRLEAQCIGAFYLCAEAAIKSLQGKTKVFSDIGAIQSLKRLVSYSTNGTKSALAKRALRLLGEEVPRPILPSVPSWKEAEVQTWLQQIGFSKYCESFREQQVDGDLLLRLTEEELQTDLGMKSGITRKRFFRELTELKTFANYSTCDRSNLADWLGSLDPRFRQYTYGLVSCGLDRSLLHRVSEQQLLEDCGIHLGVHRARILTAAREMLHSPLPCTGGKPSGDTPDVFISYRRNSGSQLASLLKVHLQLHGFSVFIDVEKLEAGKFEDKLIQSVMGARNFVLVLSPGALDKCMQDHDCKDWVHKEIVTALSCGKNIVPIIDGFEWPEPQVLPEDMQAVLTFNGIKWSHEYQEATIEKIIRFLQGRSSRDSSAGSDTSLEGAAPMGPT
The data set can be described thus: HPLC analysis of time dependent NAD+ consumption by hSARM1. The data set is classed as biochemical. As to conditions: 50 μM NAD+. How it is done: Purified hSARM1w.t. was first diluted to 800 nM in 25 mM HEPES pH 7.5, 150 mM NaCl, and then mixed in 37° C. with different concentrations of NAD+(in the same buffer) in a 1:1 v/v ratio and incubated for 0, 5 and 30 min. 1:100 (v/v). BSA (NEB Inc. 20 mg/ml) was included, and reactions were stopped by heating at 95° C. for 2 minutes. Where specified, NMN (Sigma-Aldrich-N3501) was added in different concentrations. For control, NAD+ consumption was compared to a commercially available porcine brain NADase 0.025 units/ml (Sigma-Aldrich-N9879).
HPLC measurements were performed using a Merck Hitachi Elite LaChrom HPLC system equipped with an autosampler, UV detector and quaternary pump. HPLC traces were monitored at 260 nm and integrated using EZChrom Elite software. 10 μL of each sample were injected onto a Waters Spherisorb ODS1 C18 RP HPLC Column (5 μm particle size, 4.6 mm×150 mm ID). HPLC solvents are: A: 100% methanol; B: 120 mM sodium phosphate pH 6.0; C double-distilled water (DDW). The column was pre-equilibrated with B:C mixture ratio of 80:20. Chromatography was performed at room temperature with a flow rate of 1.5 ml/min. Each analysis cycle was 12 min long as follows (A:B:C, v/v): fixed 0:80:20 0-4 min; gradient to 20:80:0 4-6 min; fixed 20:80:0 from 6-9 min. gradient to 0:80:20 from 9-10 min; fixed 0:80:20 from 10-12 min. The NAD+ hydrolysis product ADPR was eluted at the isocratic stage of the chromatography while NAD+ elutes in the methanol gradient stage.

In data set [2] the target is T1, hSARM1. The data set can be described thus: Determination of IC50 and mode of inhibition of hSARM1 NADase (ADPR by HPLC). The data set is classed as biochemical. As to conditions: for mode of inhibition, Lineweaver-Burk plot: 10 μM inhibitor, NAD+ 1-160 μM; for pIC50: 50 μM NAD+, 10 min pre-incubation at room temperature, 10 min at 37° C.
For the next data set, the target named is T2, zfSARM1 (Danio rerio, UniProt F1QWA8).
T2 sequence (F1QWA8 1-713): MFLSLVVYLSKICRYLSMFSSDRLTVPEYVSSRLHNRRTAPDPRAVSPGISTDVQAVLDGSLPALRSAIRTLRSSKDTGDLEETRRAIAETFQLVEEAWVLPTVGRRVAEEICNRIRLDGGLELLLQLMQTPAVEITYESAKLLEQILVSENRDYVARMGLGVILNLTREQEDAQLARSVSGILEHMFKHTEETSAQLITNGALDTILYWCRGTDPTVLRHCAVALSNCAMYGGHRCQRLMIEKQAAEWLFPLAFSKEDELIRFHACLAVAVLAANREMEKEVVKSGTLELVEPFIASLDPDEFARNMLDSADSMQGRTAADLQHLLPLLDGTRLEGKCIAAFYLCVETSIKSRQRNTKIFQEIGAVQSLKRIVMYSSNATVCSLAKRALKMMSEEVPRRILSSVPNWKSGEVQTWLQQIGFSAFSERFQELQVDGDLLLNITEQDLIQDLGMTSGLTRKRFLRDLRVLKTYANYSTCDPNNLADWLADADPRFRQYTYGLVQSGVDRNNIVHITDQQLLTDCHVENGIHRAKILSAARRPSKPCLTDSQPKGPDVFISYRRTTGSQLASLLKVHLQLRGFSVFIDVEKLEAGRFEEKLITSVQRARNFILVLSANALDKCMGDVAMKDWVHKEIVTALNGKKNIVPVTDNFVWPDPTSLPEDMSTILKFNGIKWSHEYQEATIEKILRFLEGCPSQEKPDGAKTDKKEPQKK
In words: Effect of hSARM1 inhibitors on zfSARM1 NADase activity (ADPR by HPLC). The data set is classed as biochemical, Zebrafish.

For data set [3], the system named is Mouse DRG explants. In words: Axon degeneration assay after axotomy, DRG explants. The format is cell-based. The settings on record: 10-30 μM compound; 16 hours post axotomy. How it is done: (§1) FIG. 15A. Mouse DRG explants cultures were grown in NGF containing media for 96 hours. Right before axotomy, the media was exchanged and supplemented with either 10-30 μM of the hSARM1 inhibitory compounds or just with 0.2% DMSO for control, and then the culture were left to grow for additional 16 hours. The white dashed lines indicate cut site (axotomy). To evaluate toxic side effects, we applied […] of the inhibitory compounds without performing axotomy. The axons were stained with anti-Tuj1 antibody.
(§2) Dorsal root ganglion (DRG) were dissected from E13.5 wild-type mice and plated in 8-wells chamber coated with 10 μg/ml poly-d-lysin (Sigma-Aldrich, St Louis. Mo.) and 10 μg/ml mouse Laminin (Sigma-Aldrich). The DRGs were grown in Neurobasal™-A (NB, GIBCO, 10888022) medium supplemented with B27 (Gibco, Waltham, Mass.), penicillin-streptomycin solution, glutamine (Biological Industries, Beit HaEmek, Israel), and NGF (Alomone Labs. Jerusalem, Israel) in a humidified incubator (37° C. 5% CO2).
(§3) After 96 h, the medium was exchanged to NGF containing medium, supplemented with 10-30 μM SARM1 inhibitory compounds, which were first dissolved in DMSO to a 10 mM stock concentration. For axotomy, axons were cut using a needle, in close proximity to the cell body and were examined 16 hours post-axotomy. […]
(§4) Images were binarized such that pixels corresponding to axons converted to white, while all other regions converted to black. The images were analyzed using Image) software with algorithm that distinguishes fragmented from intact axonal segments. To each image we calculated the degeneration index (DI) defined as the ratio of fragmented to intact axon number. To quantify axonal protection, we normalized the DI values to DMSO with axotomy, and then we divide one by each calculated value. […] To quantify axonal degeneration caused by the compounds' toxicity, we normalized the DI values to DMSO control without axotomy and generated a degeneration index. From each explant, 4 nonoverlapping frames were randomly collected and quantified per experimental condition.

The subject of data set [4] is Mouse DRG explants. The data set can be described thus: Toxic side effects on DRG explants without axotomy. The format is cell-based. The settings on record: 10-30 μM compound; no axotomy. How it is done: as §1, §2, §3, §4
The target in the next data set is hSARM1 FP255-6RR (human) (UniProt Q6SZW1). In words: cell-based or functional assay.
The target of data set [5] is hSARM1RR216-7EE/FP255-6RR (human) (UniProt Q6SZW1). The data set can be described thus: cell-based or functional assay.

pEC50, pIC50: −log10 of the molar value. Entries after “also recorded” stand apart in the source; their conditions may differ. Where two headings read alike, the source gives them in different places.

As to `NC(=O)c1ccc[n+]([C@@H]2O[C@H](COP(=O)([O-])O)[C@@H](O)[C@H]2O)c1` [NMN, nicotinamide mononucleotide, reference compound], the “effect on hSARM1 NADase activity” value at hSARM1 [1] (0.2 mM NMN) is given as “no visible effect”. At hSARM1 [1] (1 mM NMN), the “increase in hSARM1 NADase activity” value came to 30%.
On to `O=NN1CCCCC1` [TK138], for which the “mode of inhibition, Lineweaver-Burk plot” value on hSARM1 [2] is “competitive pattern”. The pEC50 (as a rule, −log10 of the EC50, conventionally taken in molar units) at zfSARM1 (50 μM NAD+, ADPR production by HPLC, read-out: EC50, activation of zfSARM1 NADase) was 5.57. The “protection of axons after axotomy” value in the data set with Mouse DRG explants [3] is reported as “high level of protection; also recorded: highest level of protection”. The “toxic effect on axons without axotomy” value in the data set on Mouse DRG explants [4] is “only very mildly toxic; also recorded: significant toxic effect”.
For `CCOC(=O)Cn1sc2nc(C)cc(C)c2c1=O` [TK142], on hSARM1 [2], the “mode of inhibition, Lineweaver-Burk plot” value was “competitive pattern” and the pIC50 (commonly −log10 of the IC50, conventionally taken in molar units) is at least 5.00. For the same compound, at zfSARM1, the “effect on zfSARM1 NADase activity (words)” value is recorded as “concentration-dependent inhibitory effects”. For the same compound, the “effect on zfSARM1 NADase activity (words)” value on zfSARM1 (listed as TK 142) is “specific inhibitory effect”. Moreover, the “protection of axons after axotomy” value in the data set on Mouse DRG explants [3] is “only mild protection”. Besides, in the data set with Mouse DRG explants [4], the “toxic effect on axons without axotomy” value is reported as “not toxic at all”.
Consider `O=C(c1ccccn1)N1C[C@H]2OC(=O)N(CCCN3CCOCC3)[C@H]2C1` [TK174], for which, on hSARM1 [2], the pIC50 was at least 5.00. Further, the “protection of axons after axotomy” value in the data set with Mouse DRG explants [3] is listed as “did not protect axons after axotomy”. In addition, in the data set on Mouse DRG explants [4], the “toxic effect on axons without axotomy” value is on record as “not toxic”.
In the data set with hSARM1 FP255-6RR (human), “hSARM1 FP255-6RR (from UniProt Q6SZW1 26-724) (enzyme)” registered a cell death 24 hours after transfection (resazurin fluorescence assay, HEK-293T cells) of 50%.
“hSARM1RR216-7EE/FP255-6RR (from UniProt Q6SZW1 26-724) (enzyme)”: the cell death 24 hours after transfection (resazurin fluorescence assay, HEK-293T cells) in data set [5] stood at 50%.

Source of the values: US20220241416A1, “METHODS FOR THE IDENTIFICATION OF SARM1 NADASE ACTIVITY INHIBITORS AND USES THEREOF” (Bar Ilan University, priority 2021, published 2022).
